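Grown in 96-well plates, cells were treated for 48 hours with each compound at five concentrations. Insufficient inhibition: endpoint recorded as highest concentration tested. At the GI50, growth is halved.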 Active and inactive are the calls of the source. Rule as the data show it: active = GI50 up to about 1.1 µM and inactive = higher. Bounds are passed on as bounds.

Some test systems named below: HCT-116; A498; NCI/ADR-RES; OVCAR-4; HOP-92; KM12; UACC-62; SNB-19; A549; SK-MEL-28; CAKI-1; SN12C; NCI-H226; SR; HL-60; SF-268; NCI-H23; LOX IMVI; Malme-3M; MCF7.
What all share (experiment): NCI-60 cell line screen, 48 h

With `CC(C)=CCC[C@@H](C)C1=C(O)C(=O)C(C)=C(Nc2ccccc2F)C1=O`, the GI50 was 13.3 µM (inactive) with HCT-116; 16.6 µM (inactive) in the experiment with A498; 3.49 µM (inactive) in the experiment with NCI/ADR-RES; 15 µM (inactive) in the experiment on OVCAR-4; 21.1 µM (inactive) in the experiment with HOP-92; 15.5 µM (inactive) in the experiment with KM12. In addition, the GI50 with UACC-62 was 12.1 µM (inactive); with SNB-19 it was 15.2 µM (inactive); with A549 it was 17.2 µM (inactive); in the experiment on SK-MEL-28 it was 38.6 µM (inactive); with CAKI-1, 16.1 µM (inactive); in the experiment on SN12C, 15 µM (inactive). For the same molecule, the GI50 in the experiment on NCI-H226 is 17.9 µM (inactive); in the experiment with SR, 28.1 µM (inactive); with HL-60, 2.28 µM (inactive); with SF-268 it was 9.77 µM (inactive); in the experiment with NCI-H23, 12.7 µM (inactive); in the experiment on LOX IMVI, 16.4 µM (inactive). In addition, the GI50 with Malme-3M is 10.2 µM (inactive); in the experiment with MCF7, 24.8 µM (inactive).

Regarding `Nc1ccccc1CCCC(=O)O`, the GI50 in the experiment with HCT-116, in the experiment on A498, in the experiment on NCI/ADR-RES, in the experiment with OVCAR-4, with HOP-92 and in the experiment with KM12 was > 100 µM (inactive) throughout. Moreover, the GI50 in the experiment with UACC-62, with SNB-19, in the experiment on A549, in the experiment on SK-MEL-28, in the experiment on CAKI-1 and in the experiment on SN12C was > 100 µM (inactive) in each case. Moreover, the GI50 in the experiment on NCI-H226 was > 100 µM (inactive); in the experiment on SR it was > 100 µM (inactive); with HL-60, 45.4 µM (inactive); with SF-268, > 100 µM (inactive); with NCI-H23, > 100 µM (inactive); with LOX IMVI it was > 100 µM (inactive). The GI50 in the experiment with Malme-3M and with MCF7 was > 100 µM (inactive) in each case.

Turning to `O=C(O)C(CCc1ccccn1)c1ccccc1` (stereo not given), the GI50 in the experiment with HCT-116 was > 100 µM (inactive); in the experiment with A498 it was > 100 µM (inactive); with NCI/ADR-RES it was > 100 µM (inactive); in the experiment on OVCAR-4, > 100 µM (inactive); with HOP-92, > 50.4 µM (inactive); in the experiment on KM12, > 100 µM (inactive). The GI50 in the experiment with UACC-62, in the experiment with SNB-19, in the experiment on A549, in the experiment with SK-MEL-28, in the experiment with CAKI-1 and in the experiment on SN12C was > 100 µM (inactive) each time. The GI50 with NCI-H226 was > 100 µM (inactive); in the experiment with SR it was > 100 µM (inactive); in the experiment with HL-60, 1 µM (active); in the experiment on SF-268 it was > 100 µM (inactive); in the experiment on NCI-H23, > 100 µM (inactive); with LOX IMVI, > 100 µM (inactive). Also, the GI50 in the experiment with Malme-3M and with MCF7 was > 100 µM (inactive) each time.

(Values after ChEMBL document CHEMBL1201862, “PubChem BioAssay data set” (2004).)
